Drawing on ChEMBL document CHEMBL1150473, “Schotten-Baumann acylation of N-debenzoyltaxol; an efficient route to N-acyl taxol analogues and their biological evaluation” (1994), this text covers ED50 ratio for six molecules.

Each structure is given as a SMILES string.

One experiment has as its system B16. The experiment in a line: Cytotoxic ratio of inhibition of B16 melanoma cell proliferation after 40 hour incubation relative to taxol. The experiment is classed as functional, Mus musculus.
The target in experiment [1] is Tubulin alpha chain (Sus scrofa) (UniProt P02550). The experiment in a line: Evaluated for ability to initiate the polymerization of tubulin in the microtubule assembly assay expressed as ED50(compound) / ED50(taxol). The experiment is classed as functional.
Sequence of Tubulin alpha chain (Sus scrofa) (P02550 whole entry, looked up): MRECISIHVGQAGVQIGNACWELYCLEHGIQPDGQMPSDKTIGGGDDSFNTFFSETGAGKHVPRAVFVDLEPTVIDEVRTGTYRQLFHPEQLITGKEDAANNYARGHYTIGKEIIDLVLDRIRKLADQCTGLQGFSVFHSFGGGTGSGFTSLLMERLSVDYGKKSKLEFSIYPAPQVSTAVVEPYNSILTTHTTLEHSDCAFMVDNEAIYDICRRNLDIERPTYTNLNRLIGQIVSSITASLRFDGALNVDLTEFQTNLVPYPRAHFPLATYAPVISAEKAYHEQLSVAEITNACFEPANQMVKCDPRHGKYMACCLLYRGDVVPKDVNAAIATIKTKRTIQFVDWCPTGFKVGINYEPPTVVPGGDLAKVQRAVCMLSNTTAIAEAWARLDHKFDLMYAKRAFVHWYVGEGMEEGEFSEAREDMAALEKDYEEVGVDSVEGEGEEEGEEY

On to `CC(=O)O[C@H]1C(=O)[C@@]2(C)[C@H]([C@H](OC(=O)c3ccccc3)[C@]3(O)C[C@H](OC(=O)[C@H](O)[C@@H](NC(=O)C(C)(C)C)c4ccccc4)C(C)=C1C3(C)C)[C@]1(OC(C)=O)CO[C@@H]1C[C@@H]2O`, for which the ED50 ratio in the experiment with B16 turned out to be 22.4; in experiment [1], 2.61.

As to `CC(=O)O[C@H]1C(=O)[C@@]2(C)[C@H]([C@H](OC(=O)c3ccccc3)[C@]3(O)C[C@H](OC(=O)[C@H](O)[C@@H](NC(=O)c4ccccc4)c4ccccc4)C(C)=C1C3(C)C)[C@]1(OC(C)=O)CO[C@@H]1C[C@@H]2O` [PACLITAXEL], the ED50 ratio (in the experiment on B16; in experiment [1]) was 1 each time.

As for `CC(=O)O[C@H]1C(=O)[C@@]2(C)[C@H]([C@H](OC(=O)c3ccccc3)[C@]3(O)C[C@H](OC(=O)[C@H](O)[C@@H](NC(=O)c4c(F)c(F)c(N=[N+]=[N-])c(F)c4F)c4ccccc4)C(C)=C1C3(C)C)[C@]1(OC(C)=O)CO[C@@H]1C[C@@H]2O`, the figures for the ED50 ratio (in the experiment on B16; in experiment [1]) were 14.8 and 4.6, respectively.

As for `CC(=O)O[C@H]1C(=O)[C@@]2(C)[C@H]([C@H](OC(=O)c3ccccc3)[C@]3(O)C[C@H](OC(=O)[C@H](O)[C@@H](NC(=O)CC(C)(C)C)c4ccccc4)C(C)=C1C3(C)C)[C@]1(OC(C)=O)CO[C@@H]1C[C@@H]2O`, the ED50 ratio in the experiment with B16 is 3.13; in experiment [1], 0.74.

Take `CC(=O)O[C@H]1C(=O)[C@@]2(C)[C@H]([C@H](OC(=O)c3ccccc3)[C@]3(O)C[C@H](OC(=O)[C@H](O)[C@@H](NC(=O)CC(C)C)c4ccccc4)C(C)=C1C3(C)C)[C@]1(OC(C)=O)CO[C@@H]1C[C@@H]2O`: the results for the ED50 ratio (in the experiment with B16; in experiment [1]) were 2.65 and 1.18, respectively.

For `CC(=O)O[C@@]12CO[C@@H]1C[C@H](O)[C@@]1(C)C(=O)[C@H](O)C3=C(C)[C@@H](OC(=O)[C@H](O)[C@@H](NC(=O)OC(C)(C)C)c4ccccc4)C[C@@](O)([C@@H](OC(=O)c4ccccc4)[C@H]21)C3(C)C.O.O.O` [DOCETAXEL], the ED50 ratio in the experiment with B16 was determined as 0.23; in experiment [1] it was 0.55.
